Data reported in ChEMBL document CHEMBL4680308, “Chemo-enzymatic synthesis of adenine substituted nicotinic acid adenine dinucleotide phosphate (NAADP) analogs” (Bioorg Med Chem, 2021).

Legend:
[1] = Desensitization of NAADP receptor in sea urchin egg homogenate assessed as ability to induce time dependent sub-threshold desensitization of calcium release pretreated for 7 mins followed by 1 uM NAADP added by measuring inhibition of calcium release by fluorometric assay; format: tissue-based, Strongylocentrotus purpuratus
[2] = Agonist activity at NAADP receptor in sea urchin egg homogenate assessed as increase in calcium release by fluo-3 based flurometric assay; format: tissue-based, Strongylocentrotus purpuratus

| EC50 [2] [nM] | Compound | IC50 [1] [nM] |
| --- | --- | --- |
| 8 | Nc1ncnc2c1ncn2[C@@H]1O[C@H](COP(=O)(O)OP(=O)(O)OC[C@H]2O[C@@H]([n+]3cccc(C(=O)[O-])c3)[C@H](O)[C@@H]2O)[C@@H](O)[C@H]1OP(=O)(O)O | 0.14 |
| 2860 | C#Cc1nc2c(N)ncnc2n1[C@@H]1O[C@H](COP(=O)(O)OP(=O)(O)OC[C@H]2O[C@@H]([n+]3cc(N=[N+]=[N-])cc(C(=O)[O-])c3)[C@H](O)[C@@H]2O)[C@@H](O)[C@H]1OP(=O)(O)O | 99 |
| 710 | C#Cc1nc2c(N)ncnc2n1[C@@H]1O[C@H](COP(=O)(O)OP(=O)(O)OC[C@H]2O[C@@H]([n+]3cccc(C(=O)[O-])c3)[C@H](O)[C@@H]2O)[C@@H](O)[C@H]1OP(=O)(O)O | 12.1 |
